In article PMC8062851, “2-Methoxyestradiol and its derivatives inhibit store-operated Ca^2+ entry in T cells: Identification of a new and potent inhibitor” (Biochimica et Biophysica Acta. Molecular Cell Research, 2021):
Entries after “also recorded” stand apart in the source; their conditions may differ.

Tests used:
ORAI1 = molecular target: T1, ORAI1 (Homo sapiens, UniProt Q96D31); test: Live cell Ca2+ imaging of G-GECO1.2-ORAI1 transfected Jurkat T cells; type: cell-based; conditions: 10 μM
T1 construct: host or cells: Jurkat T-lymphocytes (electroporation)
T1 sequence (Q96D31 whole entry): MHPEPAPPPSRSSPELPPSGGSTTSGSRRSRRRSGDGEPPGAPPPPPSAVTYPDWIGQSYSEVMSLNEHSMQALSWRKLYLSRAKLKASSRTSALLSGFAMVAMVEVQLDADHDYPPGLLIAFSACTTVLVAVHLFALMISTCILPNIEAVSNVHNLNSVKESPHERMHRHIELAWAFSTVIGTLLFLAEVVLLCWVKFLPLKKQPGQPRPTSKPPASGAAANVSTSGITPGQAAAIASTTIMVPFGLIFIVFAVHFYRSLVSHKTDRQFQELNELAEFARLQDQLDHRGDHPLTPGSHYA
Protocol: 12.5 ∗ 10^6 Jurkat T–lymphocytes were pelleted at 400 to 450 ×g for 5 min at room temperature and pellets were dissolved in 500 μl RPMI 1640 medium (Gibco) without phenol red containing L-glutamine, supplemented with 7.5% (v/v) NCS. 30 μg plasmid-DNA (G-GECO1.2-ORAI1) was transferred into a 4 mm electroporation cuvette (Biozym, Austria) and the Jurkat T-lymphocytes were added. G-GECO1.2-ORAI1 was a gift from Michael Cahalan, USA (Addgene plasmid # 73562). After an incubation of 5 min at 37 °C, cells were electroporated with 960 μF and 240 V (τ: […]). […]
17 to 22 h after electroporation, 5 ∗ 10^4 cells were pelleted at 400–450 ×g for 5 min at room temperature and cell pellets were dissolved in 50 μl nominal Ca^2+ free buffer. […] The fluorophore was excited at 488 nm every 2 s for 30 min and fluorescence was measured at 520 nm using Volocity (Version 6.3, Perkin Elmer).
Using ImageJ (Version 1.51 k, National Institutes of Health, USA) the pictures were analyzed for mean fluorescence in the outer ring of Jurkat T-lymphocytes employing ring-shaped regions of interest (ROIs). […] The mean background fluorescence values were subtracted from the signal in every image. For quantitative analysis, fluorescence intensities were normalized to the first fluorescence intensity (F/F0).

IP3 receptors = test: IP3-evoked Ca2+ release in permeabilized Jurkat T cells; type: cell-based, human; conditions: 2 μM IP3
Protocol: (§1) 3 ∗ 10^7 Jurkat T-lymphocytes per measurement were centrifuged at 450 ×g for 5 min at room temperature. The pellet was rinsed twice, each time using 10 ml permeabilization buffer 1 (120 mM KCl, 10 mM NaCl, 1.2 mM MgCl2, 0.533 mM CaCl2, 1 mM EGTA and 10 mM HEPES, pH 7.2 (KOH), sterile filtered). Subsequently, the pellet was resuspended in 2 ml permeabilization buffer 1 containing 80 μg/ml saponin (Fluka) and the cells were incubated for 10 min at 37 °C. Subsequently, the cells were centrifuged at 450 ×g for 5 min at room temperature and the cell pellet was washed once in 10 ml permeabilization buffer 2 (120 mM KCl, 10 mM NaCl, 1.2 mM MgCl2 and 10 mM HEPES, pH 7.2 (KOH), sterile filtered). Finally, the cells were taken up in 1 ml permeabilization buffer 2, placed into a cuvette and measured at the fluorescence spectrophotometer. Before the start of the measurement, 0.5 μl of 1 mM Fura2 free acid (dissolved in pure water, final concentration: 0.5 μM), 5 μl of 5 mg/ml creatinkinase (dissolved in permeabilization buffer 2, final concentration: 25 μg/ml, 20 U/ml, Roche) and 10 μl of 2 M creatin phosphate (dissolved in permeabilization buffer 2, final concentration: 20 mM, Calbiochem) were added. Fura2 was used to measure the Ca^2+ concentration and creatinkinase and creatin phosphate were used as ATP-regenerating system. The measurement was controlled by FL Solutions (Version 4.1, Hitachi High-Technologies Corporation). Fura2 was alternatively excited every 2 s at 340 ± 5 nm and 380 ± 5 nm, each 400 ms apart. Fluorescence intensity was measured at an emission wavelength of 495 ± 5 nm for both excitation wavelengths. […] Ca^2+ concentrations were calculated according to Grynkiewicz et al. as described earlier in Section 2.4.
(§2) As a quantitative read-out for inhibition of IP3 receptors, the peak [Ca^2+] after IP3 addition was subtracted from the mean [Ca^2+] between 25 and 75 s before IP3 addition (dPeak). […] The rate constant K of the fitted data was used as a quantitative read-out for SERCA pump activity and its inhibition.

SERCA pumps = test: SERCA activity (ATP-induced Ca2+ reuptake) in permeabilized Jurkat T cells; type: cell-based, human
Protocol: as §1, §2

TMBP cells = test: In vitro activation of TMBP cells by MBP, cytokine mRNA by qPCR; type: cell-based, rat; conditions: TMBP cells + MBP; 6 h; qPCR; STX564 vs Synta66
Protocol: Myelin basic protein (MBP)-reactive CD4^+ T cells retrovirally transduced to express enhanced GFP (TMBP cells) were established as previously reported. In brief, 6–8 week old female Lewis rats were immunized subcutaneously with 150 μl of emulsion consisting of equal parts of MBP (stock concentration: 1 mg/ml) and complete Freund's adjuvant containing heat-inactivated Mycobacterium tuberculosis extract (Difco; stock concentration: 2 mg/ml). Draining lymph nodes were harvested and passed through a cell strainer (40 μm) 9–10 days after immunization. The cell suspension was co-cultured with GP + E86 packaging cell lines producing replication-deficient retroviruses in the presence of 10 μg/ml MBP. Murine IL-2 was added to the culture for T cell expansion from day 2–4 after stimulation. The cell lines underwent 3–4 cycles of stimulation before being used for in vitro and in vivo experiments. […] Upon stimulation, they produced interferon-γ and IL-17.
In vitro activation assays were performed in 96-well plates. […]. TMBP cell activation on mRNA level was determined using qPCR and on surface protein level using surface marker staining and subsequent flow cytometry analysis.
Total RNA was isolated using the standard TRIzol method. cDNA was synthesized using the RevertAid First Strand cDNA Synthesis Kit (Thermo Fisher Scientific). Quantitative PCR (qPCR) was performed using the StepOnePlus™ Real-Time PCR System (Applied Biosystems), as previously described [[23], [24], [25]]. Rat TMBP cell data were obtained from three to four independent duplicate measurements. β-actin served as housekeeping gene. Human PBMC data were obtained from two independent healthy donors and duplicate measurements (representative data of one donor are shown). HPRT served as housekeeping gene. For all probes (TaqMan), a combination of 5′-FAM and 3′-TAMRA quencher was used as described.

[1] = tested on: alpha-dendrotoxin sensitive KV channels, likely KV1.1, KV1.2 and/or KV1.6; conditions: 10 μM; ref Di Sabatino et al. [36]; cited from earlier work
KV1.3 channels = tested on: KV1.3 channels; parameters: method as in patent WO2005/009954A2 (compound 66); conditions: ref patent WO2005/009954A2 (compound 66); cited from earlier work

## COc1ccc(OC)c(-c2ccc(NC(=O)c3ccncc3F)cc2)c1 [Synta66]
ORAI1
  SOCE by ORAI1 (G-GECO1.2-ORAI1 fluorescence): almost completely diminished
IP3 receptors
  effect on IP3-evoked Ca2+ release: Neither STX564 nor Synta66 affected IP3-evoked Ca^2+ release significantly; also recorded: did not inhibit the Ca^2+ release by IP3
SERCA pumps
  effect on SERCA activity (initial slope of [Ca2+] upon ATP addition): Neither STX564, Synta66 nor vehicle DMSO affected ATP-induced Ca^2+ reuptake by SERCA pumps; also recorded: neither STX564 nor Synta66 showed any effect
TMBP cells
  concentration at which interferon-γ expression was significantly antagonized: ≥ 10 µM
[1]
  inhibition of alpha-dendrotoxin sensitive KV channels: < 10%
KV1.3 channels
  inhibition of KV1.3 channels: inhibits KV1.3 channels
